Experimental findings from patent US7022711B2, “2-(4-Pyridyl)amino-6-dialkoxyphenyl-pyrido[2,3-d]pyrimidin-7-ones” (Warner-Lambert Company, priority 2000, dated 2006) are described below.

Series [1] relates to C6 rat glioma cells. Description: C6 tumor cell proliferation (Sulphorhodamine B). It counts as cell-based. To be noted: 4 days with compound. The procedure:
Human umbilical vein endothelial cells (HUVECs) (Clonetics, Palo Alto, Calif.) were seeded at 2000 cells per well in growth medium containing 2% serum (EGM, Clonetics) and allowed to attach overnight (37° C., 5% CO2, 100% humidity). C6 rat glioma cells (ATCC) were seeded at 600 cells per well and incubated in F10 medium (GIBCO, Gaithersburg, Md.) supplemented with 15% horse serum, 2.5% fetal bovine serum, and 1 mM glutamine. A90 human ovarian cells (Dr. Kent Crickard, SUNY/AB Medical School) were seeded at 600 cells per well in RPMI1640 (GIBCO) plus 10% fetal bovine serum. Plates were incubated overnight (37° C., 5% CO2, 100% humidity) to allow the cells to attach. Test compound dilutions were added to the appropriate wells, and the incubation was continued for 4 additional days. Monolayers were fixed in 10% trichloroacetic acid (30 minutes at 4° C.), washed with distilled water, and stained with Sulphorhodamine B (0.075% in 1% acetic acid) (Sigma). Plates were washed in 1% acetic acid, and the bound dye was solubilized in 100 μL unbuffered Tris base. Absorbance was measured at 540 nm using a reference filter wavelength of 630 nm. Inhibitor potency (IC50) versus cellular proliferation was determined, and endothelial cell selectivity was assessed by comparing the inhibition of HUVEC proliferation to A90 and C6 tumor cell proliferation (Table 3).

Series [2] concerns the target T1, VEGFR-2 (Homo sapiens, UniProt P35968).
T1 construct: The kinase domains from FGFR-1, VEGFR-2, Lck, and PDGF were purified from baculoviral vectors expression systems; made in house
In words: Kinase inhibition assay (DELFIA), VEGF-2. The note with it: 40 μM ATP, kinase domain 20 nM. The format is biochemical. The procedure: DELFIA plates (EG&G Wallac, Gaithersburg, Md.) were coated overnight with Poly Glu Tyr (4:1) (Sigma, St. Louis, Mo.) at room temperature, washed (DELFIA wash reagent, EG&G Wallac), and spotted with 1 μL inhibitor dilution or DMSO carrier control per well. In some cases, kinase was autophosphorylated prior to analysis by incubating 45 minutes at 4° C. in the presence of 4 mM ATP and 25 mM MgCl2. A typical 100 μL kinase assay reaction contained 20 mM Tris (pH 7.5), 20 mM MgCl2, 50 mM NaCl, 5 mM DTT, and protease inhibitors (Mini EDTA-free protease inhibitor cocktail tablets, Boehringer Mannheim, Indianapolis, Ind.), 40 μM ATP, and an appropriate concentration of inhibitor. The reaction was allowed to continue for 30 minutes at room temperature. Plates were washed, blocked 30 minutes at room temperature (0.5% bovine serum albumin in DELFIA Assay Buffer, EG&G Wallac), and washed. One hundred microliter europium-conjugated antiphosphotyrosine antibody in DELFIA assay buffer was added to each well. Plates were incubated for 1 hour and decanted. […] Compounds were tested from 10 through 0.0001 μM. c-Src was (Upstate Biotechnology, Lake Placid, N.Y.) was used at 3 units per reaction. The kinase domains from FGFR-1, VEGFR-2, Lck, and PDGF were purified from baculoviral vectors expression systems and were used in the assays at 20 nM.

Series [3] is described as follows: Metabolic stability, mice liver S9 fraction. The format is in vitro ADME. To be noted: mice liver S9, 5 μM, 37° C., 1.0 mM NADPH. The procedure:
Compounds were individually incubated (5 μM in DMSO) with human and mice liver S9 fractions in 50 mM KHPO4 buffer at 37° C. in the presence of 1.0 mM NADPH and additional cofactors. At 0, 10, 20, and 40 minutes, 100 μL aliquots were removed and added to 300 μL of acetonitrile. Standard curves were prepared in a similar manner with each compound. Samples were analyzed for parent concentration by LC-MS/MS. The in vitro metabolic half-life was determined from the concentration-time plots using WinNonlin. These in vitro data represent the rate of oxidative, hydrolytic, and conjugative metabolism.

T1 sequence (P35968 834-1162 limits assumed, species assumed): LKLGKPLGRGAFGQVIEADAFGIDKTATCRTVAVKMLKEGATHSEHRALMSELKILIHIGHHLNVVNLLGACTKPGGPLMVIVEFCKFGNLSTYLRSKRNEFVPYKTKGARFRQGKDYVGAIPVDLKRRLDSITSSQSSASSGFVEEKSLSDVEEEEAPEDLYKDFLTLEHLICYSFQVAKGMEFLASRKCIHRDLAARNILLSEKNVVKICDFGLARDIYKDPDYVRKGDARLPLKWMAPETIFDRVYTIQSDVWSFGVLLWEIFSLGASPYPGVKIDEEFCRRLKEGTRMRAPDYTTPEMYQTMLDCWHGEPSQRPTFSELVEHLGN

As to “6-(3,5-Dimethoxy-phenyl)-8-ethyl-2-(pyridin-4-ylamino)-8H-pyrido[2,3-d]pyrimidin-7-one [Example 8]”, the results for the IC50 in series [1] and in series [2] were greater than 25 µM and 0.02 µM, respectively. Moreover, the “MS9 in vitro metabolic half-life” value in series [3] is greater than 3.33 h.
